Experimental data published in patent US20020137929A1, “1 - (3-heterocyclylphenyl) isothiourea, -isourea, -guanidine and -amidine herbicidal agents” (Intellectual Property Department, BASF Aktiengesellschaft, priority 1998, published 2002).

Columns and labels:
[1] = system: AMBEL (Ragweed, Common); assay: Postemergence herbicidal evaluation; assay type: in vivo, Ambrosia artemisifolia; details: for Herbicidal rating AMBEL: postemergence
Summary of the method: (§1)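 Two-week-old seedlings sprayed with compound in 50/50 acetone/water plus 0.5% TWEEN 20, at about 0.0156 to 0.500 kg/ha, nozzle at 40 psi. Kept in greenhouse; rated visually 4-5 weeks after treatment on a 0-9 scale versus control, repeat tests averaged.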

[2] = system: IPOHE (Morningglory, Ivyleaf); assay: Postemergence herbicidal evaluation; assay type: in vivo, Ipomoea hederacea; details: for Herbicidal rating IPOHE: postemergence
Summary of the method: as §1

[3] = system: ZEAMX (Corn, Field); assay: Postemergence herbicidal evaluation; assay type: in vivo, Zea mays; details: for Herbicidal rating ZEAMX: postemergence
Summary of the method: as §1

[4] = system: SAGPY (Arrowhead (Pygmaea)); assay: Preemergence weed control under flooded paddy conditions; assay type: in vivo, Sagittaria pygmaea; details: rated 3-4 weeks after treatment
Summary of the method: (§2)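 Ratings on a 0-9 visual scale cover stand, vigor, malformation, size, chlorosis and overall appearance relative to a control, taken three to four weeks post-treatment. Application was into flood water over freshly sown silt loam at roughly 0.0313 to 0.500 kg/ha.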

[5] = system: ECHORC (Watergrass (Calif.)); assay: Postemergence weed control under flooded paddy conditions; assay type: in vivo, Echinochloa oryzoides; details: postemergence weeds
Summary of the method: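 Injury ratings (0–9 scale covering stand, vigor, malformation, size, chlorosis and overall appearance versus control) were made three to four weeks after treatment. Test material, about 0.0313 to 0.500 kg/ha a.i. in 50/50 v/v aqueous/acetone, was added to flood water 1.5 to 3 cm deep over 3 to 5 cm weeds and 1.5 to 2.5 leaf rice.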

[6] = system: CYPSE (Flatsedge); assay: Preemergence weed control under flooded paddy conditions; assay type: in vivo, Cyperus serotinus; details: rated 3-4 weeks after treatment
Summary of the method: as §2

[7] = system: GLXMAW (Soybean, Williams); assay: Postemergence herbicidal evaluation; assay type: in vivo, Glycine max, (L.) Merr. cv Williams; details: for Herbicidal rating GLXMAW: postemergence
Summary of the method: as §1

C=CCN1C(=O)C(CC(=O)NS(=O)(=O)c2ccccc2)SC1=Nc1cc(-n2c(=O)cc(C(F)(F)F)n(C)c2=O)c(F)cc1Cl (stereo not shown) [Compound 101, 3-Allyl-2-{{2-chloro-5-[3,6-dihydro-3-methyl-2,6-dioxo-4-(trifluoromethyl)-1(2H)-pyrimidinyl]-4-fluorophenyl}imino}-4-oxo-N-(phenylsulfonyl)-5-thiazolidineacetamide]
Herbicidal rating AMBEL ([1]; rate 0.0156 kg/ha): 9.0
Herbicidal rating AMBEL ([1]; rate 0.0313 kg/ha): 7.0
Herbicidal rating AMBEL ([1]; rate 0.0625 kg/ha): 9.0
Herbicidal rating AMBEL ([1]; rate 0.1250 kg/ha): 9.0
Herbicidal rating IPOHE ([2]; rate 0.0156 kg/ha): 4.0
Herbicidal rating IPOHE ([2]; rate 0.0313 kg/ha): 9.0
Herbicidal rating IPOHE ([2]; rate 0.0625 kg/ha): 9.0
Herbicidal rating IPOHE ([2]; rate 0.1250 kg/ha): 9.0
Herbicidal rating ZEAMX ([3]; rate 0.0156 kg/ha): 4.5
Herbicidal rating ZEAMX ([3]; rate 0.0313 kg/ha): 4.5
Herbicidal rating ZEAMX ([3]; rate 0.0625 kg/ha): 5.0
Herbicidal rating ZEAMX ([3]; rate 0.1250 kg/ha): 5.0
SAGPY herbicidal effect rating ([4]; 0.0313 kg/ha): 0.0
SAGPY herbicidal effect rating ([4]; 0.0625 kg/ha): 0.0
SAGPY herbicidal effect rating ([4]; 0.1250 kg/ha): 0.0
SAGPY herbicidal effect rating ([4]; 0.2500 kg/ha): 2.0
SAGPY herbicidal effect rating ([4]; 0.5000 kg/ha): 4.0
Herbicidal rating ECHORC ([5]; Rate 0.0313 kg/ha, rated 3 to 4 weeks after treatment): 0.0
Herbicidal rating ECHORC ([5]; Rate 0.0625 kg/ha, rated 3 to 4 weeks after treatment): 0.0
Herbicidal rating ECHORC ([5]; Rate 0.1250 kg/ha, rated 3 to 4 weeks after treatment): 0.0
Herbicidal rating ECHORC ([5]; Rate 0.2500 kg/ha, rated 3 to 4 weeks after treatment): 0.0
Herbicidal rating ECHORC ([5]; Rate 0.5000 kg/ha, rated 3 to 4 weeks after treatment): 0.0
CYPSE herbicidal effect rating ([6]; 0.0313 kg/ha): 0.0
CYPSE herbicidal effect rating ([6]; 0.0625 kg/ha): 0.0
CYPSE herbicidal effect rating ([6]; 0.1250 kg/ha): 0.0
CYPSE herbicidal effect rating ([6]; 0.2500 kg/ha): 0.0
CYPSE herbicidal effect rating ([6]; 0.5000 kg/ha): 0.0
Herbicidal rating GLXMAW ([7]; rate 0.0156 kg/ha): 5.5
Herbicidal rating GLXMAW ([7]; rate 0.0313 kg/ha): 5.5
Herbicidal rating GLXMAW ([7]; rate 0.0625 kg/ha): 6.0
Herbicidal rating GLXMAW ([7]; rate 0.1250 kg/ha): 6.5

2-{{2-Chloro-5-[3,6-dihydro-3-methyl-2,6-dioxo-4-(trifluoromethyl)-1(2H)-pyrimidinyl]-4-fluoro-phenyl}imino}-4-oxo-3,5-thiazolidenediacetic acid, 3-ethyl (2-propynyl) ester, (2:1) mixture with di-2-propynyl ester [Compound 58]
Postemergence herbicidal rating AMBEL ([1]; Rate 0.0158 kg/ha): 9.0
Postemergence herbicidal rating AMBEL ([1]; Rate 0.0315 kg/ha): 9.0
Postemergence herbicidal rating AMBEL ([1]; Rate 0.0630 kg/ha): 9.0
Postemergence herbicidal rating IPOHE ([2]; Rate 0.0158 kg/ha): 9.0
Postemergence herbicidal rating IPOHE ([2]; Rate 0.0315 kg/ha): 9.0
Postemergence herbicidal rating IPOHE ([2]; Rate 0.0630 kg/ha): 9.0
Postemergence herbicidal rating ZEAMX ([3]; Rate 0.0158 kg/ha): 7.0
Postemergence herbicidal rating ZEAMX ([3]; Rate 0.0315 kg/ha): 7.0
Postemergence herbicidal rating ZEAMX ([3]; Rate 0.0630 kg/ha): 8.0
SAGPY herbicidal effect rating ([4]; 0.0313 kg/ha): 0.0
Herbicidal rating SAGPY ([4]; 0.0625 kg/ha): 0.0
Herbicidal rating SAGPY ([4]; 0.1250 kg/ha): 0.0
Herbicidal rating SAGPY ([4]; 0.2500 kg/ha): 4.0
Herbicidal rating ECHORC ([5]; rate 0.0313 kg/ha, 3-4 weeks after treatment): 7.0
Herbicidal rating ECHORC ([5]; rate 0.0625 kg/ha, 3-4 weeks after treatment): 7.0
Herbicidal rating ECHORC ([5]; rate 0.1250 kg/ha, 3-4 weeks after treatment): 7.0
Herbicidal rating ECHORC ([5]; rate 0.2500 kg/ha, 3-4 weeks after treatment): 9.0
CYPSE herbicidal effect rating ([6]; 0.0313 kg/ha): 5.0
Herbicidal rating CYPSE ([6]; 0.0625 kg/ha): 5.0
Herbicidal rating CYPSE ([6]; 0.1250 kg/ha): 5.0
Herbicidal rating CYPSE ([6]; 0.2500 kg/ha): 5.0
Postemergence herbicidal rating GLXMAW ([7]; Rate 0.0158 kg/ha): 7.0
Postemergence herbicidal rating GLXMAW ([7]; Rate 0.0315 kg/ha): 7.0
Postemergence herbicidal rating GLXMAW ([7]; Rate 0.0630 kg/ha): 8.5
